Assay results from patent publication US20240400561A1, “NOVEL SUBSTITUTED SULFONYLUREA COMPOUNDS AS INHIBITORS OF INTERLEUKIN-1 ACTIVITY” (Viva Star Biosciences (Suzhou) Co., Ltd., priority 2021, published 2024).

Each compound was assayed against T1, NLRP3 (Homo sapiens, UniProt Q96P20) (assay: THP-1 cell assay (LPS priming, nigericin), IL1β release by HTRF; called pyroptosis assay, THP IC50). Conditions: NLRP3 inhibitory activity; THP-1 cells, 1.0 ug/mL LPS, compound 3 hrs, nigericin 5 uM 1 hr, IL1β in supernatant.
T1 construct: Seed THP-1 cells (5.56*10^5 cells/mL) containing 1.0 ug/mL LPS; endogenous in cells; host or cells: THP-1 cells
T1 sequence (Q96P20 whole entry): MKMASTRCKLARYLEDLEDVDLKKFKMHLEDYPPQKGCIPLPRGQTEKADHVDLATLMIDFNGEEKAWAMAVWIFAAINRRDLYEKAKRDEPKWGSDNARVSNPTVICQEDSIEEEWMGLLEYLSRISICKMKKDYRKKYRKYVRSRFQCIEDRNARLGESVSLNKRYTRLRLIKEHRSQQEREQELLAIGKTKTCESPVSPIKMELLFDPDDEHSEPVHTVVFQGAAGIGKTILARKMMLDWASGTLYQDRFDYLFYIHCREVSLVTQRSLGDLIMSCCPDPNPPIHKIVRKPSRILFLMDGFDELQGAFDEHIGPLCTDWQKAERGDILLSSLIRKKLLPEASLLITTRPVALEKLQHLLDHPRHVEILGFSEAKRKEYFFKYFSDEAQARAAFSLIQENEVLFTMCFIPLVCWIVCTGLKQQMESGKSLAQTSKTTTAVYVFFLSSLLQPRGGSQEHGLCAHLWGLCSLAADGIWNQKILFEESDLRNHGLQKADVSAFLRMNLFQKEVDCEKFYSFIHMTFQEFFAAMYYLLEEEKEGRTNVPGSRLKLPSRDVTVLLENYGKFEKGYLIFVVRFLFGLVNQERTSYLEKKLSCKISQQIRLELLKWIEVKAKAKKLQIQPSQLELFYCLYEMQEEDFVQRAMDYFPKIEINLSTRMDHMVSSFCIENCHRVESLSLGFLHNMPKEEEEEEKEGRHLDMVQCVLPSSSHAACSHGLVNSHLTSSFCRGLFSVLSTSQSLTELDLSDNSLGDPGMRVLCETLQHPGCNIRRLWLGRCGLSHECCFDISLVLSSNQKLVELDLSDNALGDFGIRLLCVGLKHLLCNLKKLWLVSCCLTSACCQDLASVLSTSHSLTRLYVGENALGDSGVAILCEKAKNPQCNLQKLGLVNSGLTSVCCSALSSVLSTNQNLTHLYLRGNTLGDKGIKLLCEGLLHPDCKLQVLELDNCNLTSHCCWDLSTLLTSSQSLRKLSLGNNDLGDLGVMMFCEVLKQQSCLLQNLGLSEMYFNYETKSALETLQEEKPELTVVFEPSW
Type: cell-based
Summary of the method: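 THP-1 cells were primed with 1.0 ug/mL LPS in serum-free RPMI 1640 alongside compound (10 doses from 5 uM, 1:3) for 3 h at 37° C. Nigericin (final 5 uM) was then added for 1 h. Supernatant IL1β was quantified by HTRF against a standard curve, with IC50 from a four-parameter fit.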

Row | SMILES | IC50
1 | Cc1cc2c(c(NC(=O)NS(=O)(=O)c3ccn(C4CC(O)C4)n3)c1-c1ccn3nccc3c1)CCC2 (stereo not drawn) [Example 76, 1-(3-hydroxycyclobutyl)-N-((6-methyl-5-(pyrazolo[1,5-a]pyridin-5-yl)-2,3-dihydro-1H-inden-4-yl)carbamoyl)-1H-pyrazole-3-sulfonamide] | ≤ 30 nM
2 | Cc1cc2c(c(NC(=O)NS(=O)(=O)c3cc(CN(C)C)n(C4CC4)n3)c1-c1ccn3nccc3c1)CCC2 [Example 77, 1-cyclopropyl-5-((dimethylamino)methyl)-N-((6-methyl-5-(pyrazolo[1,5-a]pyridin-5-yl)-2,3-dihydro-1H-inden-4-yl)carbamoyl)-1H-pyrazole-3-sulfonamide] | 30 to 300 nM
3 | Cc1cc2c(c(NC(=O)NS(=O)(=O)c3ccn(C4CC4)n3)c1-c1ccn3nncc3c1)CCC2 [Example 78, N-((5-([1,2,3]triazolo[1,5-a]pyridin-5-yl)-6-methyl-2,3-dihydro-1H-inden-4-yl)carbamoyl)-1-cyclopropyl-1H-pyrazole-3-sulfonamide] | ≤ 30 nM
4 | Cc1cc2c(c(NC(=O)NS(=O)(=O)c3ccn(C[C@@H](C)O)n3)c1-c1ccn3nccc3c1)CCC2 [Example 79, (R)-1-(2-hydroxypropyl)-N-((6-methyl-5-(pyrazolo[1,5-a]pyridin-5-yl)-2,3-dihydro-1H-inden-4-yl)carbamoyl)-1H-pyrazole-3-sulfonamide] | ≤ 30 nM
5 | Cc1cc2c(c(NC(=O)NS(=O)(=O)c3ccn(C[C@H](C)O)n3)c1-c1ccn3nccc3c1)CCC2 [Example 80, (S)-1-(2-hydroxypropyl)-N-((6-methyl-5-(pyrazolo[1,5-a]pyridin-5-yl)-2,3-dihydro-1H-inden-4-yl)carbamoyl)-1H-pyrazole-3-sulfonamide] | ≤ 30 nM
6 | Cc1cc2c(c(NC(=O)NS(=O)(=O)c3cc(OC4CC4)cnn3)c1-c1ccn3nccc3c1)CCC2 [Example 81, 5-cyclopropoxy-N-((6-methyl-5-(pyrazolo[1,5-a]pyridin-5-yl)-2,3-dihydro-1H-inden-4-yl)carbamoyl)-1H-pyridazine-3-sulfonamide] | ≤ 30 nM
7 | Cc1cc2c(c(NC(=O)NS(=O)(=O)c3ccn(C(C)C4CC4)n3)c1-c1ccn3nccc3c1)CCC2 (stereo not drawn) [Example 82, 1-(1-cyclopropylethyl)-N-((6-methyl-5-(pyrazolo[1,5-a]pyridin-5-yl)-2,3-dihydro-1H-inden-4-yl)carbamoyl)-1H-pyrazole-3-sulfonamide] | 300 to 1000 nM
8 | Cc1cc2c(c(NC(=O)NS(=O)(=O)c3ccn(C4CC4)n3)c1-c1ccn3nccc3c1)OCC2 [Example 83, 1-cyclopropyl-N-((5-methyl-6-(pyrazolo[1,5-a]pyridin-5-yl)-2,3-dihydrobenzofuran-7-yl)carbamoyl)-1H-pyrazole-3-sulfonamide] | 30 to 300 nM
9 | Cc1cc2c(c(NC(=O)NS(=O)(=O)c3cncc(C4CCC4)c3)c1-c1ccn3nccc3c1)CCC2 [Example 84, 5-cyclobutyl-N-((6-methyl-5-(pyrazolo[1,5-a]pyridin-5-yl)-2,3-dihydro-1H-inden-4-yl)carbamoyl)pyridine-3-sulfonamide] | ≤ 30 nM
10 | Cc1cc2c(c(NC(=O)NS(=O)(=O)c3ccn(CC4CC4)n3)c1-c1ccn3nccc3c1)OCC2 [Example 86, 1-(cyclopropylmethyl)-N-((5-methyl-6-(pyrazolo[1,5-a]pyridin-5-yl)-2,3-dihydrobenzofuran-7-yl)carbamoyl)-1H-pyrazole-3-sulfonamide] | 30 to 300 nM
11 | O=C(Nc1c2c(cc(F)c1-c1ccn3nccc3c1)CCO2)NS(=O)(=O)c1ccn(C2CC2)n1 [Example 87, 1-cyclopropyl-N-((5-fluoro-6-(pyrazolo[1,5-a]pyridin-5-yl)-2,3-dihydrobenzofuran-7-yl)carbamoyl) 1H-pyrazole-3-sulfonamide] | 300 to 1000 nM
12 | Cc1cc2cc(-c3c(C)cc4c(c3NC(=O)NS(=O)(=O)c3ccn(C5CC5)n3)CCC4)ccn2n1 [Example 88, 1-cyclopropyl-N-((6-methyl-5-(2-methylpyrazolo[1,5-a]pyridin-5-yl)-2,3-dihydro-1H-inden-4-yl)carbamoyl)-1H-pyrazole-3-sulfonamide] | ≤ 30 nM
13 | O=C(Nc1c2c(cc(Cl)c1-c1ccn3nccc3c1)CCC2)NS(=O)(=O)c1ccn(C2CC2)n1 [Example 89, N-((6-chloro-5-(pyrazolo[1,5-a]pyridin-5-yl)-2,3-dihydro-1H-inden-4-yl)carbamoyl)-1-cyclopropyl-1H-pyrazole-3-sulfonamide] | ≤ 30 nM
14 | Cc1cc2c(c(NC(=O)NS(=O)(=O)c3ccn(C[C@@H]4CCO4)n3)c1-c1ccn3nccc3c1)CCC2 [Example 91, (S)—N-((6-methyl-5-(pyrazolo[1,5-a]pyridin-5-yl)-2,3-dihydro-1H-inden-4-yl)carbamoyl)-1-(oxetan-2-ylmethyl)-1H-pyrazole-3-sulfonamide] | ≤ 30 nM
15 | Cc1cc2c(c(NC(=O)NS(=O)(=O)c3ccn(C4CC4)n3)c1-c1ccc3ccnn3c1)CCC2 [Example 92, 1-cyclopropyl-N-((6-methyl-5-(pyrazolo[1,5-a]pyridin-6-yl)-2,3-dihydro-1H-inden-4-yl)carbamoyl)-1H-pyrazole-3-sulfonamide] | 30 to 300 nM
16 | Cc1cc2c(c(NC(=O)NS(=O)(=O)c3ccn(C4CC4)n3)c1-c1ccn3cnnc3c1)CCC2 [Example 93, N-((5-([1,2,4]triazolo[4,3-a]pyridin-7-yl)-6-methyl-2,3-dihydro-1H-inden-4-yl)carbamoyl)-1-cyclopropyl-pyrazole-3-sulfonamide] | ≤ 30 nM
17 | Cc1cc2c(c(NC(=O)NS(=O)(=O)c3ccn(C[C@@H]4CCO4)n3)c1-c1ccn3ncnc3c1)CCC2 [Example 94, (S)—N-((5-([1,2,4]triazolo[1,5-a]pyridin-7-yl)-6-methyl-2,3-dihydro-1H-inden-4-yl)carbamoyl)-1-(oxetan-2-ylmethyl)-1H-pyrazole-3-sulfonamide] | 30 to 300 nM
18 | Cc1cc2c(c(NC(=O)NS(=O)(=O)c3ccn(C[C@@H]4CCO4)n3)c1-c1ccc3ccnn3c1)CCC2 [Example 95, (S)—N-((6-methyl-5-(pyrazolo[1,5-a]pyridin-6-yl)-2,3-dihydro-1H-inden-4-yl)carbamoyl)-1-(oxetan-2-ylmethyl)-1H-pyrazole-3-sulfonamide] | 30 to 300 nM
19 | O=C(Nc1c2c(cc(Cl)c1-c1ccn3cnnc3c1)CCC2)NS(=O)(=O)c1ccn(C2CC2)n1 [Example 96, N-((5-([1,2,4]triazolo[4,3-a]pyridin-7-yl)-6-chloro-2,3-dihydro-1H-inden-4-yl)carbamoyl)-1-cyclopropyl-1H-pyrazole-3-sulfonamide] | ≤ 30 nM
20 | Cc1cc2c(c(NC(=O)NS(=O)(=O)c3ccn(C4CC4)n3)c1-c1ccc3ncnn3c1)CCC2 [Example 97, N-((5-([1,2,4]triazolo[1,5-a]pyridin-6-yl)-6-methyl-2,3-dihydro-1H-inden-4-yl)carbamoyl)-1-cyclopropyl-1H-pyrazole-3-sulfonamide] | ≤ 30 nM
21 | O=C(Nc1c2c(cc(CO)c1-c1ccn3nccc3c1)CCC2)NS(=O)(=O)c1ccn(C2CC2)n1 [Example 98, 1-cyclopropyl-N-((6-(hydroxymethyl)-5-(pyrazolo[1,5-a]pyridin-5-yl)-2,3-dihydro-1H-inden-4-yl)carbamoyl)-1H-pyrazole-3-sulfonamide] | 30 to 300 nM
